Some test systems named below: SF-539 CNS; SF-295 CNS; UO-31 renal; HCT-116 colon; OVCAR-5 ovarian; NCI-H460 lung; M14 melanoma; CCRF-CEM leukemia; CAKI-1 renal; A498 renal.
Holding throughout (assay): NCI-60 cell line screen, 48 h

Each structure is given as a SMILES string. “And” between values parts separate entries of the source, which are not always exact repeats. Identical values can stand only once.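 Test compounds were applied to cells in 96-well plates for 48 hours at 5 doses. At the GI50, growth is halved. TGI marks complete inhibition of growth.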

As for `COC(=O)CCC(=O)Nc1ccc(Cl)cc1C`, the TGI in the assay with SF-539 CNS, in the assay with SF-295 CNS, in the assay on UO-31 renal, with HCT-116 colon, with OVCAR-5 ovarian and in the assay with NCI-H460 lung was greater than 100 µM in each case. Moreover, the TGI is greater than 100 µM in the assay on M14 melanoma, greater than 100 µM in the assay on CCRF-CEM leukemia, greater than 100 µM with CAKI-1 renal and greater than 79 µM in the assay on A498 renal.

As for `CC1SC(c2ccccc2Cl)N(NC(=O)C(O)c2ccccc2)C1=O` (stereo not given), the GI50 with SF-539 CNS is greater than 100000 nM; in the assay with SF-295 CNS, 32400 nM; in the assay with UO-31 renal it was 74900 nM; in the assay with HCT-116 colon, 96100 nM; in the assay on OVCAR-5 ovarian, greater than 100000 nM; with NCI-H460 lung, 66900 nM. The GI50 in the assay on M14 melanoma is 94300 nM; with CCRF-CEM leukemia, greater than 100000 nM; with CAKI-1 renal it was 44600 nM; in the assay with A498 renal it was 67800 nM. The TGI in the assay with SF-539 CNS, with SF-295 CNS, with UO-31 renal, in the assay on HCT-116 colon, with OVCAR-5 ovarian and with NCI-H460 lung was greater than 100 µM each time. In addition, the TGI with M14 melanoma, in the assay with CCRF-CEM leukemia, in the assay on CAKI-1 renal and in the assay on A498 renal was greater than 100 µM each time.

Turning to `Cn1ncc(Cl)c1-c1cc(C(=O)N[C@H](CN)Cc2cccc(F)c2)sc1Cl`, the GI50 in the assay on SF-539 CNS is 313 nM and 325 nM; in the assay on SF-295 CNS, 255 nM and 486 nM; with UO-31 renal, 844 nM and 1510 nM; in the assay with HCT-116 colon, 1270 nM and 2840 nM; in the assay on OVCAR-5 ovarian, 2200 nM and 2690 nM; with NCI-H460 lung, 406 nM and 568 nM. For the same compound, the GI50 with M14 melanoma is 1100 nM and 2000 nM; in the assay with CCRF-CEM leukemia it was 349 nM and 294 nM; in the assay with CAKI-1 renal it was 1450 nM and 3030 nM; in the assay with A498 renal, 126 nM and 104 nM. Further, the TGI was 3.22 µM and 4.64 µM in the assay with SF-539 CNS; 2.95 µM and 7.01 µM in the assay with SF-295 CNS; > 7.4 µM and 12.5 µM in the assay with UO-31 renal; > 5.17 µM and 13.6 µM with HCT-116 colon; > 10 µM and 17.2 µM with OVCAR-5 ovarian; > 10 µM and 13.3 µM in the assay on NCI-H460 lung. Besides, the TGI in the assay with M14 melanoma was 3.14 µM and 6.49 µM; with CCRF-CEM leukemia it was > 10 µM and 10.5 µM; in the assay on CAKI-1 renal, > 9.48 µM and 15.5 µM; in the assay with A498 renal, 0.705 µM and 0.779 µM.

In the case of `CSC(=NC(=O)c1ccccc1Cl)SCCSC(=NC(=O)c1ccccc1Cl)SC`, the TGI in the assay on SF-539 CNS, in the assay with SF-295 CNS, in the assay on UO-31 renal, in the assay on HCT-116 colon, in the assay with OVCAR-5 ovarian and with NCI-H460 lung was greater than 100 µM in each case. The TGI with M14 melanoma, in the assay on CCRF-CEM leukemia, in the assay with CAKI-1 renal and with A498 renal was greater than 100 µM in each case.

As to `CCOC(=O)C(=Cc1ccc(C#N)cc1)C(=O)OCC`, the GI50 in the assay on SF-539 CNS was 1910 nM; with SF-295 CNS, 8560 nM; in the assay on UO-31 renal, 1650 nM; with HCT-116 colon, 2150 nM; in the assay with OVCAR-5 ovarian, 2610 nM; with NCI-H460 lung, 4200 nM. Besides, the GI50 with M14 melanoma is 1890 nM; in the assay on CCRF-CEM leukemia it was 3000 nM; with CAKI-1 renal it was 2120 nM; in the assay with A498 renal, 7840 nM. The TGI worked out at 4.15 µM with SF-539 CNS; 21.2 µM in the assay on SF-295 CNS; 3.49 µM in the assay with UO-31 renal; 4.22 µM in the assay on HCT-116 colon; 11.2 µM with OVCAR-5 ovarian; 16 µM in the assay on NCI-H460 lung. For the same compound, the TGI in the assay with M14 melanoma amounted to 4.26 µM; in the assay on CCRF-CEM leukemia it was 9.32 µM; with CAKI-1 renal, 5.37 µM; in the assay on A498 renal it was 20.1 µM.

Take `COc1cc2nc(N3CCCN(C)CC3)nc(NC3CCN(Cc4ccccc4)CC3)c2cc1OC`: the GI50 with SF-539 CNS is 1680 nM; in the assay on SF-295 CNS it was 1810 nM; in the assay with UO-31 renal, 1690 nM; with HCT-116 colon, 2240 nM; in the assay with OVCAR-5 ovarian it was 4470 nM; in the assay with NCI-H460 lung it was 2190 nM. For the same compound, the GI50 is 1760 nM with M14 melanoma, 2370 nM in the assay on CCRF-CEM leukemia, 1630 nM in the assay with CAKI-1 renal and 904 nM in the assay with A498 renal. Moreover, the TGI in the assay on SF-539 CNS came to 3.33 µM; with SF-295 CNS, 3.46 µM; in the assay with UO-31 renal it was 3.2 µM; in the assay with HCT-116 colon, 6.19 µM; in the assay on OVCAR-5 ovarian, 15.1 µM; with NCI-H460 lung, 4.81 µM. The TGI in the assay with M14 melanoma is 3.22 µM; with CCRF-CEM leukemia, greater than 24.6 µM; in the assay with CAKI-1 renal, 3.71 µM; in the assay with A498 renal it was 7.66 µM.

Regarding `NC(=S)N1N=C2CCCCCC[C@@H]2[C@H]1c1ccccc1`, the TGI in the assay on SF-539 CNS, in the assay on SF-295 CNS, with UO-31 renal, in the assay with HCT-116 colon, in the assay on OVCAR-5 ovarian and in the assay with NCI-H460 lung was greater than 100 µM in each case. Besides, the TGI with M14 melanoma, with CCRF-CEM leukemia, with CAKI-1 renal and with A498 renal was greater than 100 µM throughout.

Source of the values: PubChem BioAssay (NCI).
